Laboratory results as given in PMC7385124, “The molecular basis of thioalcohol production in human body odour” (Scientific Reports, 2020).

Columns and labels:
SaPatB = biological target: T1, SaPatB (Streptococcus anginosus, UniProt A6BMJ3); assay: DTNB thiol release, A412, Michaelis-Menten; assay type: biochemical; settings: pH 7.8, 50 mM KPi, 200 mM NaCl, 37 °C, 0.4 mM DTNB
T1 construct: gene lcd; full length; expressed in E. coli MC1061
T1 sequence (A6BMJ3 1-388): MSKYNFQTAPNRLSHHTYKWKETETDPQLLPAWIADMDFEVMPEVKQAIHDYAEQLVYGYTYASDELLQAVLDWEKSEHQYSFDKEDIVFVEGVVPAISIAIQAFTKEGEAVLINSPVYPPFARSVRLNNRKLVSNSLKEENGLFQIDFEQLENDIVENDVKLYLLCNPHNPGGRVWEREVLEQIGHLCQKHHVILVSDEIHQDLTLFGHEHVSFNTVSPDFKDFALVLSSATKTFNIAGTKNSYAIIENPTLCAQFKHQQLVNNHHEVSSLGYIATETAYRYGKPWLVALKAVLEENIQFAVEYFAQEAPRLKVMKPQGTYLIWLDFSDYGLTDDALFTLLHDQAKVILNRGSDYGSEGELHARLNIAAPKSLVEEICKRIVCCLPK

BsPatB [1] = biological target: T2, BsPatB (Bacillus subtilis, UniProt Q08432); assay: DTNB thiol release, A412, Michaelis-Menten; assay type: biochemical; settings: pH 7.8, 50 mM KPi, 200 mM NaCl, 37 °C, 0.4 mM DTNB
T2 construct: gene patB; full length; N-terminal MGGGFA and C-terminal ENLYFQG-His10; expressed in E. coli MC1061; homodimer, PLP on Lys234
T2 sequence (Q08432 whole entry): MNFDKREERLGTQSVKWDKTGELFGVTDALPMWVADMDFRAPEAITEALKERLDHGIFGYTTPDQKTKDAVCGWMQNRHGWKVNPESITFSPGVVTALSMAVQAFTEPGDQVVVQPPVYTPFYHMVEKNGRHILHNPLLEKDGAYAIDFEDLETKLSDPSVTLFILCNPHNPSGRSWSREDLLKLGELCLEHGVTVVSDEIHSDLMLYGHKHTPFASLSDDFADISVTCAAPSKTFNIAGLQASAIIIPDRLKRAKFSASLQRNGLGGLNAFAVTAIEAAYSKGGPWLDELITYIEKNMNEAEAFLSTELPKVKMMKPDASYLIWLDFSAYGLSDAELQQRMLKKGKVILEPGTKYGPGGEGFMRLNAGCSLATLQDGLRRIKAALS

EcMalY = biological target: T3, EcMalY (Escherichia coli, UniProt P23256); assay: DTNB thiol release, A412, Michaelis-Menten; assay type: biochemical; settings: pH 7.8, 50 mM KPi, 200 mM NaCl, 37 °C, 0.4 mM DTNB
T3 construct: gene malY; full length; N-terminal MGGGFA and C-terminal ENLYFQG-His10; expressed in E. coli MC1061
T3 sequence (P23256 whole entry): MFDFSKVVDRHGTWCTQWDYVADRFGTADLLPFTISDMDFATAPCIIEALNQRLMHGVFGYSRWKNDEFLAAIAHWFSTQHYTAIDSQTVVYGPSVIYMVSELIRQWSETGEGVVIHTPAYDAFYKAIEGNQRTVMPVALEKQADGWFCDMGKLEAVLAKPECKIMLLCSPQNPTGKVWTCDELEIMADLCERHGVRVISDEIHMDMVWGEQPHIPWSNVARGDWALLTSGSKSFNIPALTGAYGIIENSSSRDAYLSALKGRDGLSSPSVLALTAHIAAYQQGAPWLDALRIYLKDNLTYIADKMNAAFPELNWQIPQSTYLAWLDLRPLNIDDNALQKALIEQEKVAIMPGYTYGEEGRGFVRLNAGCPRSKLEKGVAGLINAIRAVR

ShPatB [2] = biological target: T4, ShPatB (Staphylococcus hominis, UniProt Z9H0M2I6C5); assay: DTNB thiol release, A412, Michaelis-Menten; assay type: biochemical; settings: pH 7.8, 50 mM KPi, 200 mM NaCl, 37 °C, 0.4 mM DTNB
T4 construct: full length; pBADcLIC, expressed in E. coli MC1061; homodimer, PLP on Lys246
T4 sequence (Z9H0M2I6C5 7-404): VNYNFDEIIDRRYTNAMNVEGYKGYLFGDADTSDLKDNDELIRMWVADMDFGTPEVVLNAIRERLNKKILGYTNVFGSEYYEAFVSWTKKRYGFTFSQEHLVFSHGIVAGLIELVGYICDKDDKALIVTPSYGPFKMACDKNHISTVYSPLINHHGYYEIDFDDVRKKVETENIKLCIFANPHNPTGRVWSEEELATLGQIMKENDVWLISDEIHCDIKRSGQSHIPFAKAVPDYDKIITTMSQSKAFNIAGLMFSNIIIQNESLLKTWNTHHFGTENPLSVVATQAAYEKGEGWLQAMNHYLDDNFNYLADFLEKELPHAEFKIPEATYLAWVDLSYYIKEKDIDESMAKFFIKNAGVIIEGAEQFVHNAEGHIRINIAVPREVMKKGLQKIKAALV

ShPatB [3] = biological target: T4, ShPatB; assay: end point DTNB assay, A412; assay type: biochemical; settings: 2.5 μM enzyme, 2.5 mM Cys-3M3SH; covalent to PLP, reversed by excess PLP
ShPatB [4] = biological target: T4, ShPatB; assay: X-ray crystallography, […] Å; assay type: binding; settings: covalent internal aldimine at Lys246
BsPatB [5] = biological target: T2, BsPatB; assay: X-ray crystallography, […] Å; assay type: binding; settings: covalent internal aldimine at Lys234
SeMetC = biological target: T5, SeMetC (Staphylococcus epidermidis, UniProt Q5HRU7); assay: DTNB thiol release, A412, Michaelis-Menten; assay type: biochemical; settings: pH 7.8, 50 mM KPi, 200 mM NaCl, 37 °C, 0.4 mM DTNB
T5 construct: gene SERP0095; full length; expressed in E. coli MC1061; species of 'Se' not spelt out
T5 sequence (Q5HRU7 1-381): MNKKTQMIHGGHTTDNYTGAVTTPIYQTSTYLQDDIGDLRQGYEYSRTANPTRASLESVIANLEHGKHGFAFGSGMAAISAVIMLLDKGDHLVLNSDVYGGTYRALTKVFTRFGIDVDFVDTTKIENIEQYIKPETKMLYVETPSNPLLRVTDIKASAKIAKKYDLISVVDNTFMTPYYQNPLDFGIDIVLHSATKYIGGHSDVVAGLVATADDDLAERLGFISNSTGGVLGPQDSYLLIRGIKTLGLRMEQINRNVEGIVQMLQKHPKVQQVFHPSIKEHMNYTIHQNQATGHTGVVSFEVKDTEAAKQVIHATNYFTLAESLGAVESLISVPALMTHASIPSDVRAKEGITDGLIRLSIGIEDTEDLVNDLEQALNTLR

CjAecD = biological target: T6, CjAecD (Corynebacterium jeikeium, UniProt Q4JWQ6); assay: DTNB thiol release, A412, Michaelis-Menten; assay type: biochemical; settings: pH 7.8, 50 mM KPi, 200 mM NaCl, 37 °C, 0.4 mM DTNB
T6 construct: gene aecD; full length; expressed in E. coli MC1061
T6 sequence (Q4JWQ6 1-416): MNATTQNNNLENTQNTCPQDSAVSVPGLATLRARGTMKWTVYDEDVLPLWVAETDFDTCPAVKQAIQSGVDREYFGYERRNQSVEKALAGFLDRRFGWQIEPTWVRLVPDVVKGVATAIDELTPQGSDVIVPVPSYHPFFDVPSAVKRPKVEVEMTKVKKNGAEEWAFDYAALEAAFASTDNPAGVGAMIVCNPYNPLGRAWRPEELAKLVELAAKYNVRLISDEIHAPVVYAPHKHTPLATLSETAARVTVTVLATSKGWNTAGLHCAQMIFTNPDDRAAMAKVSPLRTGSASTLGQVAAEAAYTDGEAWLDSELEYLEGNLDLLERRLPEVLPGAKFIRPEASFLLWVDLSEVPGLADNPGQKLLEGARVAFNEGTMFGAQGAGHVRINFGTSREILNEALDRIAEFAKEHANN

ShMetC = biological target: T7, ShMetC (Staphylococcus hominis, UniProt Z9HEU7RWP2); assay: DTNB thiol release, A412, Michaelis-Menten; assay type: biochemical; settings: pH 7.8, 50 mM KPi, 200 mM NaCl, 37 °C, 0.4 mM DTNB
T7 construct: full length; expressed in E. coli MC1061; species of 'Sh' not spelt out for MetC (S. haemolyticus possible)

`CCCC(C)(CCO)SC[C@H](N)C(=O)O` (some centres unmarked) [Cys-3M3SH] was tested, and the KM (SaPatB) was “Streptococcus anginosus (SaPatB) did not discriminate between the two ligands”, the KM (BsPatB [1]) was “B. subtilis (BsPatB) and Streptococcus anginosus (SaPatB) did not discriminate between the two ligands” and the KM (EcMalY) was “E. coli MalY (EcMalY) had higher activities against cystathionine”. The KM (ShPatB [2]) was “ShPatB exhibits selectivity towards Cys-3M3SH”.

In the case of `CC(C)(CCO)SC[C@H](N)C(=O)O` [Felinine], the KM (ShPatB [2]) is reported as “We also measured enzyme activity against Felinine, a close structural analog of Cys-3M3SH”.

In the case of `N[C@H]1CONC1=O` [LCS, L-cycloserine], the “inhibition (end point)” value (ShPatB [3]) is reported as “Cycloserine in vitro inhibition of ShPatB with Cys-3M3SH as the substrate”.

With `Cc1ncc(COP(=O)(O)O)c(C=O)c1O` [PLP, pyridoxal phosphate] the “X-ray crystallography, 1.6 Å” value (ShPatB [4]) was “each subunit containing a PLP moiety covalently bound to a conserved lysine residue” and the “X-ray crystallography, 2.3 Å” value (BsPatB [5]) was “each subunit containing a PLP moiety covalently bound to a conserved lysine residue”.

For `N[C@@H](CCSC[C@H](N)C(=O)O)C(=O)O` [cystathionine], the KM (SeMetC) was “higher activities against cystathionine, similar to the MetC enzymes included (ShMetC and SeMetC)”, the KM (SaPatB) was “Streptococcus anginosus (SaPatB) did not discriminate between the two ligands” and the KM (BsPatB [1]) was “B. subtilis (BsPatB) and Streptococcus anginosus (SaPatB) did not discriminate between the two ligands”. For the same compound, the KM (CjAecD) was “CjAecD is selective for cystathionine over Cys-3M3SH”, the KM (EcMalY) was “E. coli MalY (EcMalY) had higher activities against cystathionine” and the KM (ShMetC) was “higher activities against cystathionine, similar to the MetC enzymes included (ShMetC and SeMetC)”.
